Data published in article PMC7265341, “Quantifying CDK inhibitor selectivity in live cells” (Nature Communications, 2020).
Like-named read-outs stand apart in the source and are kept apart here.

Key:
[1] = molecular target: CDK14/Cyclin Y (Homo sapiens, UniProt O94921); test: NanoBRET live-cell target engagement, CDK14-NanoLuc/Cyclin Y in HEK-293; format: binding; settings: CDK14/Y, read-out: Inhibition at 10µM (%)
[2] = molecular target: CDK10/Cyclin L2 (Homo sapiens, UniProt Q15131); test: NanoBRET live-cell target engagement, CDK10-NanoLuc/Cyclin L2 in HEK-293; settings: read-out: Inhibition at 10µM (%), CDK10/L2
[3] = molecular target: CDK19/Cyclin C (Homo sapiens, UniProt Q9BWU1); test: NanoBRET live-cell target engagement, NanoLuc-CDK19/Cyclin C in HEK-293; settings: read-out: Inhibition at 10µM (%), CDK19/C
[4] = molecular target: CDK20/Cyclin H (Homo sapiens, UniProt Q8IZL9); test: NanoBRET live-cell target engagement, NanoLuc-CDK20/Cyclin H in HEK-293; format: binding; settings: CDK20/H, read-out: Inhibition at 10µM (%)
[5] = molecular target: CDK4/Cyclin D1 (Homo sapiens, UniProt P11802); test: NanoBRET live-cell target engagement, NanoLuc-CDK4/Cyclin D1 in HEK-293; format: binding; settings: CDK4/D1, read-out: Inhibition at 10µM (%)
[6] = molecular target: CDK2/Cyclin E1 (Homo sapiens, UniProt P24941); test: NanoBRET live-cell target engagement, CDK2-NanoLuc/Cyclin E1 in HEK-293; format: binding; settings: CDK2/E1, read-out: Inhibition at 10µM (%)
[7] = molecular target: CDK16/Cyclin Y (Homo sapiens, UniProt Q00536); test: NanoBRET live-cell target engagement, CDK16-NanoLuc/Cyclin Y in HEK-293; format: binding; settings: CDK16/Y, read-out: Inhibition at 10µM (%)
[8] = molecular target: CDK1/Cyclin E1 (Homo sapiens, UniProt P06493); test: NanoBRET live-cell target engagement, CDK1-NanoLuc/Cyclin E1 in HEK-293; format: binding; settings: CDK1/E1, read-out: Inhibition at 10µM (%)
[9] = molecular target: CDK15/Cyclin Y (Homo sapiens, UniProt Q96Q40); test: NanoBRET live-cell target engagement, NanoLuc-CDK15/Cyclin Y in HEK-293; format: binding; settings: CDK15/Y, read-out: Inhibition at 10µM (%)
[10] = molecular target: CDK17/Cyclin Y (Homo sapiens, UniProt Q00537); test: NanoBRET live-cell target engagement, CDK17-NanoLuc/Cyclin Y in HEK-293; format: binding; settings: CDK17/Y, read-out: Inhibition at 10µM (%)
Chain of CDK17/Cyclin Y (Q00537 whole entry): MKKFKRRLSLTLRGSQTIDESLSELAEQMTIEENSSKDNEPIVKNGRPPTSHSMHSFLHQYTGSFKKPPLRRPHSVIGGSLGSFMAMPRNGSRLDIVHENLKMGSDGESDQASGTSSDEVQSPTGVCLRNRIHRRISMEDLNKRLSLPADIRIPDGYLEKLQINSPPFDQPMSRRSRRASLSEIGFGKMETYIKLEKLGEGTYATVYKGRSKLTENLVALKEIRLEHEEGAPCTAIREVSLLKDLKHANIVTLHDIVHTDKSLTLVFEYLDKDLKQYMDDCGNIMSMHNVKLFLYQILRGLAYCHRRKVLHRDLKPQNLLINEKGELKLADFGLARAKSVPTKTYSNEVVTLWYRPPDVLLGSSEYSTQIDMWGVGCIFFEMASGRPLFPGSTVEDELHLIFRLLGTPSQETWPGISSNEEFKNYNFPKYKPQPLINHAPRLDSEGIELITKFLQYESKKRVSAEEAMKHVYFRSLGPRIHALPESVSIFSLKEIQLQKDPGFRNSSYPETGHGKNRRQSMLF
Chain of CDK17/Cyclin Y (Q8ND76 whole entry partner): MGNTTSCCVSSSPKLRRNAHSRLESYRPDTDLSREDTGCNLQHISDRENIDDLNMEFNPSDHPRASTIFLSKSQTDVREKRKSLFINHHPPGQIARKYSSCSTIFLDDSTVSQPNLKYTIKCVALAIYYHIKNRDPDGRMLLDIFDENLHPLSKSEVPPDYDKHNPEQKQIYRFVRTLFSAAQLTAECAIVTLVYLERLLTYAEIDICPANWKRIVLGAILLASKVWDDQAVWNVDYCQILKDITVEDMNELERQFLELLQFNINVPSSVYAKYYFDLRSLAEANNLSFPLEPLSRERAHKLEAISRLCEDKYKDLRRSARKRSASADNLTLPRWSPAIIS

[11] = molecular target: CDK7 (Homo sapiens, UniProt P50613); test: NanoBRET live-cell target engagement, NanoLuc-CDK7 in HEK-293; format: binding; settings: CDK7, read-out: Inhibition at 10µM (%)
[12] = molecular target: CDK8/Cyclin C (Homo sapiens, UniProt P49336); test: NanoBRET live-cell target engagement, NanoLuc-CDK8/Cyclin C in HEK-293; format: binding; settings: CDK8/C, read-out: Inhibition at 10µM (%)
[13] = molecular target: T1, CDK11A/Cyclin L2 (Homo sapiens, UniProt Q9UQ88); test: NanoBRET live-cell target engagement, CDK11A-NanoLuc/Cyclin L2 in HEK-293; format: binding; settings: CDK11a/L2, read-out: Inhibition at 10µM (%)
T1 sequence (Q9UQ88 1-783): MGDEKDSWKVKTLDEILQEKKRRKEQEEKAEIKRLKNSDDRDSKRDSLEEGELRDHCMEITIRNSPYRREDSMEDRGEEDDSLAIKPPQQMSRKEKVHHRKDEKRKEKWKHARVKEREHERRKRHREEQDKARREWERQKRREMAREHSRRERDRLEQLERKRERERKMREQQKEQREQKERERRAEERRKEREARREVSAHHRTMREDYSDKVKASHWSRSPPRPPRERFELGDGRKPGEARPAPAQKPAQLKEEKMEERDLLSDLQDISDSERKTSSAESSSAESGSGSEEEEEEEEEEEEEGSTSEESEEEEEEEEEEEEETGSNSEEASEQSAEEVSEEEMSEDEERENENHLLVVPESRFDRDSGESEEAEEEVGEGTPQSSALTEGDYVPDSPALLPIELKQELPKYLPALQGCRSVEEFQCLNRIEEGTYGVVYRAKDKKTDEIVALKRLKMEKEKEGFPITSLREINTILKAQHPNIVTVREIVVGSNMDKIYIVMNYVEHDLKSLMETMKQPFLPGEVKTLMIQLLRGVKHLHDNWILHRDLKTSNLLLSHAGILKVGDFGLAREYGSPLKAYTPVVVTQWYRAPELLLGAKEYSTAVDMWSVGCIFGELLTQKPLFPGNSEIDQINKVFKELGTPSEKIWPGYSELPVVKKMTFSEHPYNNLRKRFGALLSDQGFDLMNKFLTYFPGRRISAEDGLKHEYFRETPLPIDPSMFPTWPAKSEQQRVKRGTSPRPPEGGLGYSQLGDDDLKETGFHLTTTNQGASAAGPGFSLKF

[14] = molecular target: CDK9/Cyclin K (Homo sapiens, UniProt P50750); test: NanoBRET live-cell target engagement, NanoLuc-CDK9/Cyclin K in HEK-293; format: binding; settings: CDK9/K, read-out: Inhibition at 10µM (%)
Chain of CDK9/Cyclin K (P50750 whole entry): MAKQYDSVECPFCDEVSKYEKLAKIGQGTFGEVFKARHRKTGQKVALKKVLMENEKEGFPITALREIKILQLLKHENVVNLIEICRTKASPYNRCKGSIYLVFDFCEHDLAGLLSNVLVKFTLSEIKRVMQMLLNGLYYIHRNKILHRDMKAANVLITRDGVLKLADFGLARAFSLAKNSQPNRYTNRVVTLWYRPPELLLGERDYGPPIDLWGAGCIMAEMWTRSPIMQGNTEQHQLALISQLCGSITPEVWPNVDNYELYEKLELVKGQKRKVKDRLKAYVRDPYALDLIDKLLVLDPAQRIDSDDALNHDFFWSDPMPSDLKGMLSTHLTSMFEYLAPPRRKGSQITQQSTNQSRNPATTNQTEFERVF
Chain of CDK9/Cyclin K (O75909 whole entry partner): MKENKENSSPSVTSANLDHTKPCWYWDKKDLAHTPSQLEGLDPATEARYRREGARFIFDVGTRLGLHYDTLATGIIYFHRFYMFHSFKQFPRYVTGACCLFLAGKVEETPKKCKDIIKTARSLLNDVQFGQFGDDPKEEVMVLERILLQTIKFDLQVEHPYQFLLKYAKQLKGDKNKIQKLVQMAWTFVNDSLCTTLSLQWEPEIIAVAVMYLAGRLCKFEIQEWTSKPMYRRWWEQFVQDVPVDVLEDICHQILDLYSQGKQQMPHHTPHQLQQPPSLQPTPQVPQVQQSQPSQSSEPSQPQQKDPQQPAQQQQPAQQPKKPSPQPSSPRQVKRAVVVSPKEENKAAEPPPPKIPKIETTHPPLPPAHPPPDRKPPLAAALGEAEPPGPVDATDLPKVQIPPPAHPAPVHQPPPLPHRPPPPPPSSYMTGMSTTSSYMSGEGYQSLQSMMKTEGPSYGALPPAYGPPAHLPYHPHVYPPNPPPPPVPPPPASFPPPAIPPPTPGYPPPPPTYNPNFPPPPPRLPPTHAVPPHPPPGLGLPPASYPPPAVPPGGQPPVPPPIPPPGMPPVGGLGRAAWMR

[15] = molecular target: CDK6/Cyclin D1 (Homo sapiens, UniProt Q00534); test: NanoBRET live-cell target engagement, NanoLuc-CDK6/Cyclin D1 in HEK-293; format: binding; settings: CDK6/D1, read-out: Inhibition at 10µM (%)
Chain of CDK6/Cyclin D1 (Q00534 whole entry): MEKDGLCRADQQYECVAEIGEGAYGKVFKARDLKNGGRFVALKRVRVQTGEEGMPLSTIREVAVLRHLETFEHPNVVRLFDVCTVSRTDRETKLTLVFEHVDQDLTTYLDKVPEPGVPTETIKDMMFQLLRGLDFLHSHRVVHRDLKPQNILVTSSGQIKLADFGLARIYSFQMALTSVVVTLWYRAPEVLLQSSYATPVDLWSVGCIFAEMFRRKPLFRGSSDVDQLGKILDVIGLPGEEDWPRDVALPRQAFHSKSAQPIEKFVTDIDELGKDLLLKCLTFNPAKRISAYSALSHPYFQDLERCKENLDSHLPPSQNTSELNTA
Chain of CDK6/Cyclin D1 (P24385 whole entry partner): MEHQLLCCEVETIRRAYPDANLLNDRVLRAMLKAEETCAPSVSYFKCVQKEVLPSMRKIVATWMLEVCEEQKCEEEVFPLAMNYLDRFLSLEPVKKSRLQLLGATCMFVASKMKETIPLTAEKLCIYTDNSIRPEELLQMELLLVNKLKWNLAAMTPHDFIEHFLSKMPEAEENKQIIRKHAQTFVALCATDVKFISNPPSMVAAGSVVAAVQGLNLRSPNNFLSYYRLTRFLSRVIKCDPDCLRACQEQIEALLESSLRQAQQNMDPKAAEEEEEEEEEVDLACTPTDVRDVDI

[16] = molecular target: CDK13/Cyclin K (Homo sapiens, UniProt Q14004); test: NanoBRET live-cell target engagement, CDK13-NanoLuc/Cyclin K in HEK-293; format: binding; settings: CDK13/K, read-out: Inhibition at 10µM (%)
Chain of CDK13/Cyclin K (O75909 whole entry): as the sequence (O75909 whole entry partner) above
Chain of CDK13/Cyclin K (Q14004 other isoform, or with tags, fused parts or gaps): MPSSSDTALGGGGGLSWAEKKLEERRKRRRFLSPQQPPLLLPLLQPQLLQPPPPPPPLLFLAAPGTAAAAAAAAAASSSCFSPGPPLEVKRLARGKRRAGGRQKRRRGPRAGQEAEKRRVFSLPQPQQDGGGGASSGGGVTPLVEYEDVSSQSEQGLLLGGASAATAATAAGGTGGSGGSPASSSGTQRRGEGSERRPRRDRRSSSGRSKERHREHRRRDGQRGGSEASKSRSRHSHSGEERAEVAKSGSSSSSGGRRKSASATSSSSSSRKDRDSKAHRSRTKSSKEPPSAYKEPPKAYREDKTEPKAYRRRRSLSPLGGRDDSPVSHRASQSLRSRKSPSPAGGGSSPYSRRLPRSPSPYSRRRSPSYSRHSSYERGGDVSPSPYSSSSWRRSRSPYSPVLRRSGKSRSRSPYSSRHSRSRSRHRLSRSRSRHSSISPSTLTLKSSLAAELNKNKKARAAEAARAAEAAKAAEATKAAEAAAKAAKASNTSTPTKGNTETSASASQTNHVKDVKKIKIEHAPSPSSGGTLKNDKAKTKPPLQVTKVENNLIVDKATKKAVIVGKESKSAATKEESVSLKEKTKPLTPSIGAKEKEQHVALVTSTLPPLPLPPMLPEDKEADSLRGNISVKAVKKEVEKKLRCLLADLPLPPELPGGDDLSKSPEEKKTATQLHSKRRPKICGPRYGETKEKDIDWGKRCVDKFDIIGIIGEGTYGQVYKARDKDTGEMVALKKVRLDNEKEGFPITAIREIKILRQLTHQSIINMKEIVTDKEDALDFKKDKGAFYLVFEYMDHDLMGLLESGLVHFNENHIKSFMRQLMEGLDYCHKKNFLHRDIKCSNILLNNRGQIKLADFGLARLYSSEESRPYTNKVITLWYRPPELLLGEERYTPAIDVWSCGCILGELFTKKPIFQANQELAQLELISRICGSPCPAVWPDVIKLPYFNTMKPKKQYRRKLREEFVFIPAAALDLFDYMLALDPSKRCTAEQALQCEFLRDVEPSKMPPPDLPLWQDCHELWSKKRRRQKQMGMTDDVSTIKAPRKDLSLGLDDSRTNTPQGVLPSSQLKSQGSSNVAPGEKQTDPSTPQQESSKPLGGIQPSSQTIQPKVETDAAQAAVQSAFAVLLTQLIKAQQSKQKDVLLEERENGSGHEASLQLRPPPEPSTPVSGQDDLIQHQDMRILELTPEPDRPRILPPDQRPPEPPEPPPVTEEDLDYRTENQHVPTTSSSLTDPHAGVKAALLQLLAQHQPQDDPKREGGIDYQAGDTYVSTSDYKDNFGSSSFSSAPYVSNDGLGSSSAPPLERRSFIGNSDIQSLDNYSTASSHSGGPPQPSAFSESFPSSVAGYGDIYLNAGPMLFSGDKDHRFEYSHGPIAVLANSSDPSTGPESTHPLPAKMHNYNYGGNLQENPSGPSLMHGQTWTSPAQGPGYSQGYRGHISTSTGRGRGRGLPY

[17] = molecular target: CDK18/Cyclin Y (Homo sapiens, UniProt Q07002); test: NanoBRET live-cell target engagement, CDK18-NanoLuc/Cyclin Y in HEK-293; format: binding; settings: CDK18/Y, read-out: Inhibition at 10µM (%)
[18] = molecular target: CDK11B/Cyclin L2 (Homo sapiens, UniProt P21127); test: NanoBRET live-cell target engagement, CDK11B-NanoLuc/Cyclin L2 in HEK-293; format: binding; settings: CDK11b/L2, read-out: Inhibition at 10µM (%)
Chain of CDK11B/Cyclin L2 (P21127 1-782 isoform P21127-2): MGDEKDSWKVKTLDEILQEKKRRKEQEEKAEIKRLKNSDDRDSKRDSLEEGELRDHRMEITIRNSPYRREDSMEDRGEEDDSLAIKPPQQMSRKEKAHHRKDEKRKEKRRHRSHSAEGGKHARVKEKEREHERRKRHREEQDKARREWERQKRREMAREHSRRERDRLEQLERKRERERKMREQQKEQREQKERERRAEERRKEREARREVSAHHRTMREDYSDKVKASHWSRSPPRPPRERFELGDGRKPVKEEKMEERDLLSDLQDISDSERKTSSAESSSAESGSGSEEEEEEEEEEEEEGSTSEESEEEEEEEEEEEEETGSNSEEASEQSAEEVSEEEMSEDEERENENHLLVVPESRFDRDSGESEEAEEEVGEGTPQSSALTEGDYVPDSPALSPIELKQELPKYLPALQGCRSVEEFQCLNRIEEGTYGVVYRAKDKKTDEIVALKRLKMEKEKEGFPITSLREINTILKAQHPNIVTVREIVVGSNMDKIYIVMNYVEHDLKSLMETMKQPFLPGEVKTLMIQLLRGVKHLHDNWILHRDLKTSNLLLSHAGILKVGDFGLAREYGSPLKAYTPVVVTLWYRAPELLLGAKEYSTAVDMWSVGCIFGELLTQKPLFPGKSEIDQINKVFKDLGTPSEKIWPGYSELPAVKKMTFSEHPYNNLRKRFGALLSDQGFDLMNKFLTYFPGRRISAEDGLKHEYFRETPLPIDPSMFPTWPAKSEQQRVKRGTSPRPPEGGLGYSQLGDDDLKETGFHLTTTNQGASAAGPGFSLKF

[19] = molecular target: CDK5/CDK5R1 (Homo sapiens, UniProt Q00535); test: NanoBRET live-cell target engagement, CDK5-NanoLuc/CDK5R1 in HEK-293; format: binding; settings: CDK5/CDK5R1, read-out: Inhibition at 10µM (%)

inhibition at 10 µM ([1]; average): 29.2%
inhibition at 10 µM ([1]; experiment 1): 25.1%
inhibition at 10 µM ([1]; experiment 2): 33.2%
inhibition at 10 µM ([2]; average): 7.8%
inhibition at 10 µM ([2]; experiment 1): 9.5%
inhibition at 10 µM ([2]; experiment 2): 6.2%
inhibition at 10 µM ([3]; average): 13%
inhibition at 10 µM ([3]; experiment 1): 7.9%
inhibition at 10 µM ([3]; experiment 2): 18.2%
inhibition at 10 µM ([4]; experiment 1): 10.2%
inhibition at 10 µM ([4]; experiment 2): 7.2%
inhibition at 10 µM ([5]; average): 93.4%
inhibition at 10 µM ([5]; experiment 1): 96.8%
inhibition at 10 µM ([5]; experiment 2): 90.1%
inhibition at 10 µM ([6]; average): -5.8%
inhibition at 10 µM ([6]; experiment 1): -11%
inhibition at 10 µM ([6]; experiment 2): -0.6%
inhibition at 10 µM ([7]; experiment 1): 77.1%
inhibition at 10 µM ([7]; experiment 2): 32%
inhibition at 10 µM ([8]; average): 7.7%
inhibition at 10 µM ([8]; experiment 1): 12.1%
inhibition at 10 µM ([8]; experiment 2): 3.2%
inhibition at 10 µM ([9]; average): 14.9%
inhibition at 10 µM ([9]; experiment 1): 5%
inhibition at 10 µM ([9]; experiment 2): 24.7%
inhibition at 10 µM ([10]; average): 58.5%
inhibition at 10 µM ([10]; experiment 1): 75.6%
inhibition at 10 µM ([10]; experiment 2): 41.4%
inhibition at 10 µM ([11]; average): 35.1%
inhibition at 10 µM ([11]; experiment 1): 12.3%
inhibition at 10 µM ([11]; experiment 2): 58%
inhibition at 10 µM ([12]; average): 4.9%
inhibition at 10 µM ([12]; experiment 1): 6.7%
inhibition at 10 µM ([12]; experiment 2): 3%
inhibition at 10 µM ([13]; average): 7.4%
inhibition at 10 µM ([13]; experiment 1): 2%
inhibition at 10 µM ([13]; experiment 2): 12.8%
inhibition at 10 µM ([14]; average): 29.3%
inhibition at 10 µM ([14]; experiment 1): 31%
inhibition at 10 µM ([14]; experiment 2): 27.6%
inhibition at 10 µM ([15]; average): 98.9%
inhibition at 10 µM ([15]; experiment 1): 97%
inhibition at 10 µM ([15]; experiment 2): 101%
inhibition at 10 µM ([16]; average): -0.247%
inhibition at 10 µM ([16]; experiment 1): 4.2%
inhibition at 10 µM ([16]; experiment 2): -4.7%
inhibition at 10 µM ([17]; average): 19.5%
inhibition at 10 µM ([17]; experiment 1): 22.1%
inhibition at 10 µM ([17]; experiment 2): 16.8%
inhibition at 10 µM ([18]; average): 16.1%
inhibition at 10 µM ([18]; experiment 1): 0.226%
inhibition at 10 µM ([18]; experiment 2): 32%
inhibition at 10 µM ([19]; average): 12.2%
inhibition at 10 µM ([19]; experiment 1): 5.5%
inhibition at 10 µM ([19]; experiment 2): 18.9%
Compound: CC(C)N1CCN(c2ccc(Nc3ncc4cc5n(c4n3)C3(CCCCC3)CNC5=O)nc2)CC1 [Lerociclib]
